For assay [1], the target named is Dihydroorotate dehydrogenase (quinone), mitochondrial (Homo sapiens, UniProt Q02127).
Description: Inhibition measurement of orotate formation from radiolabeled dihydroorotate, using partially purified DHODase isolated from human liver.
The nature of assay [2]: Ability to inhibit proliferation in human lymphocytes by mixed lymphocyte reaction (MLR). The class given is functional, cell-based.

Where only a bound is given, the exact number is not on record here.

As usually defined, the Ki is the dissociation constant of the complex between target and ligand, obtained from inhibition or displacement. A high value points to weaker binding. In general, IC50 refers to the midpoint of a concentration-inhibition curve.

Chain of Dihydroorotate dehydrogenase (quinone), mitochondrial (Q02127 whole entry): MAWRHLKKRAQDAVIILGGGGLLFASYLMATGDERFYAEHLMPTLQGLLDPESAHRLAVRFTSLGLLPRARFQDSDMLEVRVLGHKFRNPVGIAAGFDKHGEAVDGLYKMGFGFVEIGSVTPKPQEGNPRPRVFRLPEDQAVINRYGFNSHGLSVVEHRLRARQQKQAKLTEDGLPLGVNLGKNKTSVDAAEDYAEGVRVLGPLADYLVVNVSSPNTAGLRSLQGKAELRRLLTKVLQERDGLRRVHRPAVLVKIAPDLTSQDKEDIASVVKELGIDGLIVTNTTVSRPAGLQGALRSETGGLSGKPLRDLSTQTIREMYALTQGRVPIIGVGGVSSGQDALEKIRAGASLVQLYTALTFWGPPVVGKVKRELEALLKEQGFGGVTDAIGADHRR

The molecule `CSc1c(-c2ccc(-c3ccccc3)cc2)nc2ccc(F)cc2c1C(=O)O` had a Ki in assay [1] of 0.013 µM. Besides, in assay [2] (Homo sapiens), the IC50 came out at 0.018 µM.

Molecule `Cc1c(-c2cccc3ccccc23)nc2ccc(F)cc2c1C(=O)O` showed a Ki in assay [1] above 0.5 µM. The IC50 in assay [2] (Homo sapiens) is above 0.5 µM. Molecule `Cc1c(-c2ccc(-c3cccc(F)c3)cc2)nc2ccc(F)cc2c1C(=O)O` had a Ki in assay [1] of 0.05 µM. Further, the midpoint of inhibition in assay [2] (Homo sapiens), the IC50, lay at 0.02 µM. For `O=C(O)c1cc(-c2ccc(-c3ccccc3)cc2)nc2sccc12`, the Ki in assay [1] was determined as 0.21 µM. In addition, the IC50 in assay [2] (Homo sapiens) is above 0.5 µM. The corresponding values for `Cc1c(-c2cccc(Oc3ccccc3)c2)nc2ccc(F)cc2c1C(=O)O` are 0.063 µM and above 0.5 µM. The corresponding values for `Cc1c(-c2ccc(-c3ccccc3)cc2)nc2cc(Cl)ccc2c1C(=O)O` are 0.22 µM and above 0.5 µM. The like results for `Cc1c(-c2ccccc2)nc2ccc(F)cc2c1C(=O)O` were, in that order, above 0.5 µM and above 0.5 µM. `Cc1c(-c2ccc(-c3cccs3)cc2)nc2ccc(F)cc2c1C(=O)O`: affinity in assay [1] was put at a Ki of 0.056 µM. For the same molecule, in assay [2] (Homo sapiens), the IC50 worked out at 0.35 µM. `Cc1c(-c2ccc(-c3cccnc3)cc2)nc2ccc(F)cc2c1C(=O)O`: in assay [1], the Ki came to 0.2 µM. This molecule returned an IC50 in assay [2] (Homo sapiens) above 0.5 µM.

Molecule `Cc1c(-c2ccc(-c3ccccc3)cc2)nc2ccc(O)cc2c1C(=O)O` gave a Ki in assay [1] above 0.5 µM. The molecule also gave an IC50 in assay [2] (Homo sapiens) above 0.5 µM.

`Cc1c(-c2ccc(-c3ccccc3)cc2)nc2ccc(F)cc2c1CO` registered a Ki in assay [1] above 0.5 µM. This molecule registered an IC50 in assay [2] (Homo sapiens) above 0.5 µM. Molecule `O=C(O)c1c(O)c(-c2ccc(-c3ccccc3)cc2)nc2ccc(F)cc12` had an IC50 in assay [2] (Homo sapiens) above 0.5 µM.

In assay [1], `CSc1ccc2nc(-c3ccc(-c4ccccc4)cc3)c(C)c(C(=O)O)c2c1` showed a Ki of 0.27 µM. This molecule displayed an IC50 in assay [2] (Homo sapiens) above 0.5 µM.

On to `Cc1c(-c2cccc(-c3ccccc3)c2)nc2ccc(F)cc2c1C(=O)O`, for which the Ki in assay [1] is above 0.5 µM. The molecule also gave an IC50 in assay [2] (Homo sapiens) above 0.5 µM. In assay [1], `Cc1c(-c2ccc(C3CCCCC3)cc2)nc2ccc(F)cc2c1C(=O)O` showed an inhibitory constant (Ki) of 0.028 µM. The IC50 in assay [2] (Homo sapiens) was found to be 0.025 µM. `Cc1c(-c2ccc(-c3ccccc3)cc2)nc2ccc(F)cc2c1O` had a Ki in assay [1] above 0.5 µM. Moreover, the IC50 in assay [2] (Homo sapiens) is above 0.5 µM. In assay [1], `O=C(O)c1cc(-c2ccc(-c3ccccc3)cc2)nc2ccc(F)cc12` gave a Ki of 0.01 µM. Also, inhibition in assay [2] (Homo sapiens) was half-maximal at 0.15 µM (IC50).

In assay [1], `Cc1ccc2nc(-c3ccc(-c4ccccc4)cc3)c(C)c(C(=O)O)c2c1` displayed a Ki of 0.01 µM. Further, half-maximal inhibition in assay [2] (Homo sapiens) (IC50) was put at 0.38 µM. The like results for `Cc1ccc(-c2ccc(-c3nc4ccc(F)cc4c(C(=O)O)c3C)cc2)cc1` were, in that order, 0.024 µM and 0.15 µM.

As for `Cc1c(-c2ccc(-c3ccccc3)cc2)nc2ccc(F)cc2c1-n1cnnn1`, in assay [1], the inhibitory constant (Ki) was above 0.5 µM. For the same molecule, the IC50 in assay [2] (Homo sapiens) was above 0.5 µM.

On to `CCc1c(-c2ccc(-c3ccccc3)cc2)nc2ccc(F)cc2c1C(=O)O`, for which the affinity in assay [1] corresponds to a Ki of 0.03 µM. Besides, in assay [2] (Homo sapiens), the midpoint of inhibition, the IC50, lay at 0.21 µM. In turn, `Cc1c(-c2ccc(Oc3ccccc3)cc2)nc2ccc(F)cc2c1C(=O)O` had a Ki in assay [1] of 0.029 µM. Further, in assay [2] (Homo sapiens), the IC50 amounted to 0.5 µM. The corresponding values for `Cc1c(-c2ccc(-c3ccccc3F)cc2)nc2cnccc2c1C(=O)O` are 0.048 µM and 0.29 µM. In turn, `CCCCCCc1ccc(-c2nc3ccc(F)cc3c(C(=O)O)c2C)cc1` had a Ki in assay [1] of 0.06 µM. Also, the IC50 in assay [2] (Homo sapiens) was above 0.5 µM. For the molecule `CC(=O)OCc1c(C)c(-c2ccc(-c3ccccc3)cc2)nc2ccc(F)cc12`, the inhibitory constant (Ki) in assay [1] is above 0.5 µM. In addition, the IC50 in assay [2] (Homo sapiens) was above 0.5 µM. As for `Cc1c(-c2ccc(-c3ccccc3)cc2)nc2ccccc2c1C(=O)O`, the IC50 in assay [2] was 0.18 µM. Molecule `Cc1c(-c2ccc(C(C)(C)C)cc2)nc2ccc(F)cc2c1C(=O)O` displayed a Ki in assay [1] of 0.04 µM. This molecule also displayed an IC50 in assay [2] (Homo sapiens) of 0.4 µM. The corresponding values for `Cc1c(-c2ccc(-c3ccccc3F)cc2)nc2ncccc2c1C(=O)O` are 0.21 µM and above 0.5 µM. On to `O=C(O)c1c2c(nc3ccc(F)cc13)-c1ccc(-c3ccccc3)cc1CC2`, for which the affinity in assay [1] corresponds to a Ki of 0.017 µM. In addition, half-maximal inhibition in assay [2] (Homo sapiens) (IC50) required 0.014 µM.

For the molecule `Cc1c(-c2ccc(-c3ccc(F)cc3)cc2)nc2ccc(F)cc2c1C(=O)O`, the affinity in assay [1], expressed as Ki, was 0.21 µM. The same molecule came in with an IC50 in assay [2] (Homo sapiens) of 0.26 µM. `Cc1c(-c2ccc(-c3ccc(Cl)cc3)cc2)nc2ccc(F)cc2c1C(=O)O`: affinity in assay [1] was put at a Ki of 0.14 µM. This molecule registered an IC50 in assay [2] (Homo sapiens) above 0.5 µM.

The molecule `Cc1c(-c2ccc(-c3ccccc3)s2)nc2ccc(F)cc2c1C(=O)O` showed a Ki in assay [1] of 0.39 µM. Moreover, the concentration for half-maximal inhibition (IC50) in assay [2] (Homo sapiens) is above 0.5 µM.

On to `Cc1c(-c2ccc(-c3ccccc3)cc2)nc2ccc(F)cc2c1C(N)=O`, for which the Ki in assay [1] was above 0.5 µM. Moreover, the IC50 in assay [2] (Homo sapiens) is above 0.5 µM. `Cc1c(-c2ccc(-c3ccccc3F)cc2)nc2nc[nH]c2c1C(=O)O` came in with a Ki in assay [1] above 0.5 µM. This molecule also registered an IC50 in assay [2] (Homo sapiens) above 0.5 µM.

`CC(=O)Nc1ccc2nc(-c3ccc(-c4ccccc4)cc3)c(C)c(C(=O)O)c2c1`: the Ki in assay [1] is above 0.5 µM. In assay [2] (Homo sapiens), this molecule registered a 50% inhibitory concentration (IC50) above 0.5 µM. In assay [1], `Cc1c(-c2ccc(-c3ccccc3)cc2)nc2ccc(C(F)(F)F)cc2c1C(=O)O` returned a Ki of 0.0084 µM. This molecule came in with an IC50 in assay [2] (Homo sapiens) of 0.007 µM. The molecule `Cc1c(-c2ccc(-c3ccc(Br)cc3)cc2)nc2ccc(F)cc2c1C(=O)O` yielded a Ki in assay [1] of 0.038 µM. The molecule further yielded an IC50 in assay [2] (Homo sapiens) above 0.5 µM. The corresponding values for `Cc1c(-c2ccc(-c3ccccc3F)cc2)nc2cccnc2c1C(=O)O` are 0.5 µM and above 0.5 µM. The corresponding values for `Cc1c(-c2ccc3ccccc3c2)nc2ccc(F)cc2c1C(=O)O` are 0.3 µM and above 0.5 µM. In assay [2], `Cc1c(-c2ccc(-c3ccccc3F)cc2)nc2ccc(F)cc2c1C(=O)O` [BREQUINAR] displayed a 50% inhibitory concentration (IC50) of 0.015 µM. This counts as double-digit nanomolar. `Cc1c(CCCCc2ccccc2)nc2ccc(F)cc2c1C(=O)O`: the Ki in assay [1] was above 0.5 µM. In addition, the IC50 in assay [2] (Homo sapiens) is above 0.5 µM. Take `Cn1cnc2c(C(=O)O)cc(-c3ccc(-c4ccccc4)cc3)nc21`: the Ki in assay [1] was above 0.5 µM. The molecule further yielded an IC50 in assay [2] (Homo sapiens) above 0.5 µM. In assay [1], `Cc1c(-c2ccc(-n3ccnc3)cc2)nc2ccc(F)cc2c1C(=O)O` had a Ki above 0.5 µM. This molecule yielded an IC50 in assay [2] (Homo sapiens) above 0.5 µM. With `Cc1c(-c2ccc(-c3ccccc3F)cc2)nc2ccncc2c1C(=O)O`, the affinity in assay [1] corresponds to a Ki of 0.42 µM. The molecule also registered an IC50 in assay [2] (Homo sapiens) above 0.5 µM.

As for `COc1c(-c2ccc(-c3ccccc3)cc2)nc2ccc(F)cc2c1C(=O)O`, affinity in assay [1] was put at a Ki of 0.013 µM. In assay [2] (Homo sapiens), this molecule returned an IC50 of 0.25 µM. In assay [1], `O=C(O)c1cc(-c2ccc(-c3ccccc3)cc2)nc2ocnc12` displayed a Ki above 0.5 µM. Also, the IC50 in assay [2] (Homo sapiens) is above 0.5 µM.

Turning to `Cc1c(-c2ccc(-c3ccc(O)cc3F)cc2)nc2ccc(F)cc2c1C(=O)O`, the Ki in assay [1] turned out to be 0.011 µM. The molecule also showed an IC50 in assay [2] (Homo sapiens) of 0.3 µM.

`Cc1c(-c2ccc(-c3ccccc3)cc2)nc2c(Cl)cccc2c1C(=O)O` had a Ki in assay [1] of 0.15 µM. Besides, the IC50 in assay [2] (Homo sapiens) was above 0.5 µM.

Molecule `Cc1c(-c2ccc(-c3ccc(C(F)(F)F)cc3)cc2)nc2ccc(F)cc2c1C(=O)O` displayed a Ki in assay [1] of 0.23 µM. Further, in assay [2] (Homo sapiens), the IC50 was above 0.5 µM. As to `Cc1c(-c2ccc(-c3ccccc3)cc2)nc2ccc(Cl)cc2c1C(=O)O`, the affinity in assay [1] corresponds to a Ki of 0.02 µM. This molecule returned an IC50 in assay [2] (Homo sapiens) of 0.035 µM.

As for `COC(=O)c1ccc2nc(-c3ccc(-c4ccccc4)cc3)c(C)c(C(=O)O)c2c1`, the Ki in assay [1] is above 0.5 µM. For the same molecule, the IC50 in assay [2] (Homo sapiens) was above 0.5 µM. Take `COC(=O)c1c(C)c(-c2ccc(-c3ccccc3)cc2)nc2ccc(F)cc12`: the affinity in assay [1], expressed as Ki, was 0.4 µM. The same molecule displayed an IC50 in assay [2] (Homo sapiens) above 0.5 µM.

In the case of `Cc1c(-c2ccc(-c3ccccc3)cc2)nc2cccc(Cl)c2c1C(=O)O`, the Ki in assay [1] amounted to 0.025 µM. In assay [2] (Homo sapiens), 0.15 µM corresponded to half-maximal inhibition (IC50).

For the origin of these results see ChEMBL document CHEMBL1128771 (Bioorg Med Chem Lett, 1995).
